In paper PMC6332318, “Synthetic Development of New 3-(4-Arylmethylamino)butyl-5-arylidene-rhodanines under Microwave Irradiation and Their Effects on Tumor Cell Lines and against Protein Kinases” (Molecules, 2015):
Read-outs that look alike come from different tables or passages of the source.

How the values were obtained:
diploid skin fibroblasts = test: in vitro inhibition of cell proliferation / survival assay, normal cells control; type: cell-based; settings: for viability at 25 µM: read-out: % of Survival
Method: (§1) As an initial effort to investigate their in vitro bioactivity, the new synthesized 3-(4-arylmethylamino)butyl-2-thioxo-1,3-thiazolidine-4-one 9a–n and also their precursors 6a–f were evaluated for their in vitro inhibition of cell proliferation. For this study, we used a panel of seven representative tumoral cell lines, namely HuH7 D12 (differential hepato cellular carcinoma), Caco 2 (differentiating colorectal adenocarcinoma), MDA-MBD231 ([…]), HCT 116 (actively proliferating colorectal adenocarcinoma), PC3 (prostate carcinoma), NCI-H727 (lung carcinoma), HaCat keratinocyte and, diploid skin fibroblasts as normal cell lines for control.
(§2) Skin diploid fibroblastic cells were provided by BIOPREDIC International Company (Rennes, France). Caco2 (Ref ECACC: 86010202), Huh-7D12 (Ref ECACC: 01042712), MDA-MB-231 (Ref ECACC: 92020424), HCT-116 (Ref ECACC: 91091005), PC3 (Ref ECACC: 90112714), NCI-H727 (Ref ECACC: 94060303) cell lines were obtained from the ECACC collection and HaCaT (from Cell Lines Service, Eppelheim, Germany). Cells were grown according to ECACC recommendations. The toxicity test of the compounds on these cells was as follows: 2 × 10^3 cells for HCT-116 cells or 4 × 10^3 for the other cells were seeded in 96 multiwell plates in triplicate and left for 24 h for attachment, spreading and growing. Then, cells were exposed for 48 h to increasing concentrations of the compounds, ranging from 0.1 to 25 μM in a final volume of 120 μL of culture medium. Cells were fixed in cooled solution of 90% ethanol/5% acetic acid, nuclei were stained with Hoechst 3342 (Sigma) and counted using automated imaging analysis (Cellomics Arrayscan VTI/HCS Reader, Thermo/Scientific, Waltham, MA, USA). The IC50 were graphically determined.

[1] = system: NCI-H727 cells (lung carcinoma); test: in vitro inhibition of cell proliferation / survival assay; type: cell-based; settings: for viability at 25 µM: Homo sapiens, read-out: % of Survival
Method: as §1, §2

[2] = system: Huh7 D12 cells (differential hepato cellular carcinoma); test: as above; type: cell-based; settings: for viability at 25 µM: Huh-7D12, measured at 25 μM after 48 h; for viability at 25 µM / % of Survival: single dose, triplicate; for % of Survival: measured at 25 μM after 48 h; for IC50: Huh-7D12, 48 h, average of three assays, standard error ± 0.5 μM
Method: as §1, §2

[3] = system: HCT 116 cells (actively proliferating colorectal adenocarcinoma); test: as above; type: cell-based; settings: for viability at 25 µM / IC50: Homo sapiens; for viability at 25 µM / % of Survival: measured at 25 μM after 48 h, single dose, triplicate; for IC50: 48 h, average of three assays, standard error ± 0.5 μM
Method: as §1, §2

HaCat keratinocyte = test: as above; type: cell-based; settings: for viability at 25 µM / IC50: Homo sapiens; for viability at 25 µM / % of Survival: measured at 25 μM after 48 h, single dose, triplicate; for IC50: HaCaT, 48 h, average of three assays, standard error ± 0.5 μM
Method: as §1, §2

[4] = system: Caco 2 cells (differentiating colorectal adenocarcinoma); test: as above; type: cell-based; settings: for viability at 25 µM / IC50: Homo sapiens; for viability at 25 µM / % of Survival: measured at 25 μM after 48 h, single dose, triplicate; for IC50: 48 h, average of three assays, standard error ± 0.5 μM
Method: as §1, §2

MDA-MB231 cells = test: as above; type: cell-based; settings: for viability at 25 µM / IC50: Homo sapiens; for viability at 25 µM: MDA-MB-231, measured at 25 μM after 48 h; for viability at 25 µM / % of Survival: single dose, triplicate; for % of Survival: measured at 25 μM after 48 h; for IC50: MDA-MB-231, 48 h, average of three assays, standard error ± 0.5 μM
Method: as §1, §2

[5] = system: PC3 cells (prostate carcinoma); test: as above; type: cell-based; settings: for viability at 25 µM: PC-3, measured at 25 μM after 48 h; for viability at 25 µM / % of Survival: single dose, triplicate; for % of Survival: measured at 25 μM after 48 h
Method: as §1, §2

[6] = Skin fibroblast, Fibroblasts, measured at 25 μM after 48 h, single dose, triplicate
[7] = NCI-H727, measured at 25 μM after 48 h, single dose, triplicate
[8] = Fibroblasts, measured at 25 μM after 48 h, single dose, triplicate

Row | melting point | Structure (SMILES) | viability at 25 µM (diploid skin fibroblasts; [6]) [%] | viability at 25 µM [1, 7] [%] | viability at 25 µM [2] [%] | viability at 25 µM [3] [%] | viability at 25 µM (HaCat keratinocyte) [%] | viability at 25 µM [4] [%] | viability at 25 µM (MDA-MB231 cells) [%] | viability at 25 µM ([5]; Homo sapiens) [%] | other results
1 | > 260 °C | Cl.NCCCCNCc1ccccc1 [Compound 6a, N-1-Phenylmethyl-butane-1,4-diamine hydrochloride] | 93 | 97 | 102 | 112 | 97 | 114 | 104 | 100 | 
2 |  | COc1ccc(CNCCCCN)cc1.Cl [Compound 6b, N-1-(4-Methoxy-phenylmethyl)-butane1,4-diamine hydrochloride] |  |  |  |  |  |  |  |  | % of Survival (diploid skin fibroblasts; [8]): 100%; % of Survival [1, 7]: 86%; % of Survival [2]: 107%; % of Survival [3]: 112%; % of Survival (HaCat keratinocyte): 106%; % of Survival [4]: 114%; % of Survival (MDA-MB231 cells): 100%; % of Survival [5]: 100%
3 |  | Cl.NCCCCNCc1ccccc1Cl [Compound 6c, N-1-(2-Chloro-phenylmethyl)-butane1,4-diamine hydrochloride] |  |  |  |  |  |  |  |  | % of Survival (diploid skin fibroblasts; [8]): 84%; % of Survival [1, 7]: 100%; % of Survival [2]: 82%; % of Survival [3]: 98%; % of Survival (HaCat keratinocyte): 80%; % of Survival [4]: 93%; % of Survival (MDA-MB231 cells): 102%; % of Survival [5]: 96%
4 |  | COc1cccc(CNCCCCN)c1.Cl [Compound 6d, N-1-(3-Methoxy-phenylmethyl)-butane-1,4-diamine hydrochloride] |  |  |  |  |  |  |  |  | % of Survival (diploid skin fibroblasts; [8]): 93%; % of Survival [1, 7]: 92%; % of Survival [2]: 107%; % of Survival [3]: 111%; % of Survival (HaCat keratinocyte): 96%; % of Survival [4]: 111%; % of Survival (MDA-MB231 cells): 99%; % of Survival [5]: 98%
5 | > 260 °C | Cl.NCCCCNCc1ccc2c(c1)OCO2 [Compound 6e, N-1-Benzo[1,3]dioxol-5-ylmethyl-butane-1,4-diamine hydrochloride] | 93 | 98 | 91 | 102 | 96 | 106 | 102 | 96 | 
6 |  | Cl.NCCCCNCc1ccc2c(c1)OCCO2 [Compound 6f, N-1-(2,3-Dihydro-benzo[1,4]dioxin-6-ylmethyl)-butane-1,4-diamine hydrochloride] |  |  |  |  |  |  |  |  | % of Survival (diploid skin fibroblasts; [8]): 105%; % of Survival [1, 7]: 92%; % of Survival [2]: 88%; % of Survival [3]: 96%; % of Survival (HaCat keratinocyte): 94%; % of Survival [4]: 109%; % of Survival (MDA-MB231 cells): 99%; % of Survival [5]: 97%
7 | 170 to 229 °C (dec.) | COc1ccc(CNCCCCN2C(=O)/C(=C/c3ccc4c(c3)OCO4)SC2=S)cc1 [Compound 9a, (5Z)3-[4-(4-Methoxyphenylmethylamino)butyl]-5-(1,3-benzodioxol-5-ylmethylene)-2-thioxo-1,3-thiazolidin-4-one] | 104 | 104 | 85 | 109 | 103 | 109 | 100 | 92 | 
8 | 253 to 255 °C | COc1ccc(/C=C2\SC(=S)N(CCCCNCc3ccc(OC)cc3)C2=O)cc1 [Compound 9b, (5Z)3-[4-(4-Methoxyphenylmethylamino)butyl]-5-(4-methoxybenzylidene)-2-thioxo-1,3-thiazolidin-4-one] | 167 | 90 | 105 | 102 | 104 | 108 | 97 | 99 | 
9 | 255 to 261 °C | COc1ccc(CNCCCCN2C(=O)/C(=C/c3ccc4c(c3)OCCO4)SC2=S)cc1 [Compound 9c, (5Z)3-[4-(4-Methoxyphenylmethylamino)butyl]-5-(2,3-dihydro-1,4-benzodioxin-6-ylmethylene)-2-thioxo-1,3-thiazolidin-4-one] | 102 | 95 | 88 | 97 | 101 | 93 | 92 | 97 | 
10 |  | COc1cccc(CNCCCCN2C(=O)/C(=C/c3ccc4c(c3)OCO4)SC2=S)c1 [Compound 9e, (5Z)3-[4-(3-Methoxyphenylmethylamino)butyl]-5-(1,3-benzodioxol-5-ylmethylene)-2-thioxo-1,3-thiazolidin-4-one] | 122 | 102 | 74 | 99 | 86 | 97 | 97 | 85 | 
11 |  | O=C1/C(=C/c2ccc3c(c2)OCO3)SC(=S)N1CCCCNCc1ccc2c(c1)OCCO2 [Compound 9l, (5Z)-[4-(2,3-Dihydro-benzo[1,4]dioxin-6-ylmethylamino)butyl]-5-(1,3-benzodioxol-5-ylmethylene)-2-thioxo-1,3-thiazolidin-4-one] | 128 | 96 | 90 | 106 | 95 | 105 | 98 | 93 | 
12 |  | O=C1/C(=C/c2ccc3c(c2)OCCO3)SC(=S)N1CCCCNCc1ccc2c(c1)OCCO2 [Compound 9m, (5Z)3-[4-(2,3-Dihydro-benzo[1,4]dioxin-6-ylmethylamino)butyl]-5-(2,3-dihydro-benzo[1,4]dioxin-6-ylmethylene)-2-thioxo-1,3-thiazolidin-4-one] | 149 | 98 | 97 | 103 | 94 | 107 | 99 | 96 | 
13 |  | COc1cccc2c1C(=O)c1c(O)c3c(c(O)c1C2=O)C[C@@](O)(C(=O)CO)C[C@@H]3O[C@H]1C[C@H](N)[C@H](O)[C@H](C)O1 [Doxorubicine, reference compound] | 74 | 65 | 63 | 22 | 88 | 43 | 82 | 34 | IC50 [2]: 30 nM; IC50 [3]: 30 nM; IC50 (HaCat keratinocyte): 20 nM; IC50 [4]: 30 nM; IC50 (MDA-MB231 cells): 10 nM
14 |  | CC[C@H](CO)Nc1nc(NCc2ccccc2)c2ncn(C(C)C)c2n1 [Roscovitine, reference compound] |  |  |  |  |  |  |  |  | viability at 25 µM (diploid skin fibroblasts; Skin fibroblast, 48 h): 53%; viability at 25 µM ([1]; NCI-H727, 48 h): 30%
15 |  | CC(=O)O[C@H]1C(=O)[C@@]2(C)[C@H]([C@H](OC(=O)c3ccccc3)[C@]3(O)C[C@H](OC(=O)[C@H](O)[C@@H](NC(=O)c4ccccc4)c4ccccc4)C(C)=C1C3(C)C)[C@]1(OC(C)=O)CO[C@@H]1C[C@@H]2O [Taxol, reference compound] | 76 | 59 | 36 | 9 | 11 | 29 | 41 | 35 | IC50 (diploid skin fibroblasts; Skin fibroblast, Fibroblasts, 48 h, average of three assays, standard error ± 0.5 μM): > 25000 nM; IC50 [2]: 3 nM; IC50 [3]: < 1 nM; IC50 (HaCat keratinocyte): 1 nM; IC50 [4]: 40 nM; IC50 (MDA-MB231 cells): 40 nM; IC50 ([5]; Homo sapiens, PC-3, 48 h, average of three assays, standard error ± 0.5 μM): < 1 nM
